Measured values taken from paper PMC12036814 (Angewandte Chemie (International Ed. in English), 2025).
Where two headings read alike, the source gives them in different places.

Key:
MAIP1 = molecular target: T1, MAIP1 (Homo sapiens, UniProt Q8WWC4); assay: Thermal protein profiling (TPP) in intact HEK293 cells; format: cell-based; details: 1 h
T1 construct: endogenous in cells; host or cells: HEK293
T1 sequence (Q8WWC4 97-291): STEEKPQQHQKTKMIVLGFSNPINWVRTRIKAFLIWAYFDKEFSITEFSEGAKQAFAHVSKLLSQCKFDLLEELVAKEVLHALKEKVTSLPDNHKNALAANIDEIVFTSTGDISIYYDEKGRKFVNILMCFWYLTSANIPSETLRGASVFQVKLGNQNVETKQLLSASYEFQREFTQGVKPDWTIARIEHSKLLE
Procedure: (§1) incubated in a thermoshaker (600 rpm, 16 h, 37 °C). The digest was stopped by adding 10 μL formic
(§2) acid (FA) and vortexing followed by centrifugation (12,000 ×g, 3 min, room temperature). 50 mg
(§3) SepPak C18 columns (Waters, Milford, USA, Cat# WAT054960) were equilibrated by gravity flow two
(§4) times with 1 mL acetonitrile and three times with 1 mL aqueous 0.1% trifluoroacetic acid (TFA) solution.
(§5) Subsequently, the samples were loaded by gravity flow, washed three times with 1 mL aqueous 0.1%
(§6) TFA solution and once with 0.5 mL aqueous 0.5% formic acid (F A) solution. Elution of peptides into
(§7) new 2.0 mL Protein LoBind Eppendorf tubes was performed by two times addition of 250 μL elution
(§8) buffer (80% acetonitrile, 0.5% FA) by gravity flow followed by 250 μL elution buffer by vacuum flow
(§9) until all liquid was eluted from the column. The eluates were lyophilized. Before MS measurement the
(§10) (brief centrifugation after each step).
(§11) Thermal protein profiling (TPP)
(§12) The experiment was performed similarly to TPP-TR experiments described by Franken et al. with minor
(§13) modifications.5 HEK293 cells were grown in 8 T175 flasks to approx. 80-90% confluency. Per replicate
(§14) volume of 0.1 N HCl as vehicle control. Per condition two replicates were used, leading to a total of 8
(§15) T175 flasks. The cells were washed with PBS, detached with accutase, the two flask per replicate
(§16) condition combined and the cells pelletized (500 ×g, 3 min, r.t.). The medium was removed and each
(§17) pellet (Cipro #1, Cipro #2, Ctrl. #1, Ctrl #2) washed twice with cold PBS. Each pellet was resuspended
(§18) depending on the sample. The cell suspension of each sample was distributed into 10 PCR tubes
(§19) (100 µL per tube), resulting in 10 stripes á 4 tubes (2×2 conditions, 10 temperature points). The PCR
(§20) tubes were subjected to the temperature gradient using a PCR cycler.
(§21) limitations, two separate programs had to be run to cover the desired temperature range (see
(§22) Table S4). The PCR tubes were heat-treated according to the two programs for 3 min and directly snap
(§23) frozen in liquid nitrogen.
(§24) manufacturer instructions.

FAM171A2 = molecular target: T2, FAM171A2 (Homo sapiens, UniProt A8MVW0); assay: as above; format: cell-based; details: 1 h
T2 construct: endogenous in cells; host or cells: HEK293
Procedure: as §1, §2, §3, §4, §5, §6, §7, §8, §9, §10, §11, §12, §13, §14, §15, §16, §17, §18, §19, §20, §21, §22, §23, §24

SCARB1 = molecular target: T3, SCARB1 (Homo sapiens, UniProt Q8WTV0); assay: Microscale thermophoresis (MST) binding; details: aggregation/precipitation at high compound concentrations
T3 construct: purchased Hölzel Biotech SC1-H82E5
T3 sequence (Q8WTV0 1-552): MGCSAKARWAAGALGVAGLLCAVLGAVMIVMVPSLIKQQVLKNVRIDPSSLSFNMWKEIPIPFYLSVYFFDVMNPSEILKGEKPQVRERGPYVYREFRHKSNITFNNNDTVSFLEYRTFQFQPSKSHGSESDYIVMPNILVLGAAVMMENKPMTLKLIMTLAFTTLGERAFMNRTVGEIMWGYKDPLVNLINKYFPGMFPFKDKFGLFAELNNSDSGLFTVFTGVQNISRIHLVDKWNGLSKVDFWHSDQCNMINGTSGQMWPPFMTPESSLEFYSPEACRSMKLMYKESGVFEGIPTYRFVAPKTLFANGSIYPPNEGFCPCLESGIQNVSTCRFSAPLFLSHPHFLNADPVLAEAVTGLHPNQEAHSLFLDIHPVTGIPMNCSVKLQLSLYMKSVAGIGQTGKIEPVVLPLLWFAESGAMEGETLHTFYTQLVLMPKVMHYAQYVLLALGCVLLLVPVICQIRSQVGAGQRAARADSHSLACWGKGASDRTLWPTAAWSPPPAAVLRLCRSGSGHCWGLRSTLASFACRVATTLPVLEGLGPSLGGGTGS
Procedure: reaction was terminated by addition of 800 μL EtOAc+0.5% AcOH, 300 μL H2O and 100 μL internal standard (13,14-dihydro-15-ketoprostaglandin -d4, 300 pmol/sample, Cayman Chemical, Ann Arbor, USA, Cat# 10010606). Of the organic phase 600 μL was transferred into a fresh Eppendorf tube and the solvent removed in a SpeedVac. The residue was dissolved in 100 μL acetonitrile/ H2O (1:1) and measured with LC-MS/MS. Gradient: Solvent A = H2O + 0.1% formic acid, solvent B = acetonitrile + 0.5% formic acid, flow rate = 0 .4 mL/min, run length 6 min, gradient = 0 min 30% B, 1 min 30% B, 2 min 31.5% B, 2.1 min 95% B, 4 min 95% B, 4.1 min 30% B, 6 min 30% B. MS settings: Capillary = 3.0 kV, sampling cone = […], extraction cone […], source temperature = 100 °C, desolvat ion temperature = 350 °C, cone gas flow = 50.0 L/h, desolvation gas flow = 650.0 L/h, scan time = 0.250 s, inter-scan time = 0.020 s, mass range = 100 -800 Da. Masses of 15 -ketoprostaglandin (349.2 Da, collision energy = 21.0 eV), 13,14 -dihydro-15-ketoprostaglandin (351.2 Da, collision energy = 18.0 eV) and 13,14-dihydro-15-ketoprostaglandin (355.2 Da, collision energy = 10.0 eV) were set for MRM. The areas under the curve (AUC) were used to quantify 15 -keto-PGE2 and 13,14 -dihydro-15-keto-PGE2 levels by determining peak areas in relation to internal standard […]. The experiment was […]
Microscale thermophoresis (MST) was performed as follows: Monolith His -Tag Labeling Kit RED -tris-NTA 2nd Generation (NanoTemper Technologies, Munich, Germany, Cat# MO -L018) was used for KD determination as recommended by the purchaser. Briefly, SCARB1 ( Hölzel Biotech, Cologne, Germany, Cat# SC1-H82E5) concentration (50 nM) was adjusted in assay buffer and labelled by the RED -tris-NTA dye (100 nM). This mixture was added to compound dilution series (c = 1 mM to 30 nM) and measured using Monolith NT.115 (NanoTemper Technologies, Munich, Germany ). The experiment was performed once and analysed with the MO Affinity Analysis software (NanoTemper).
NUDT1 target validation efforts:
Recombinant NUDT1 expression & purification […]

For O=C(O)c1cn(C2CC2)c2cc(N3CCNCC3)c(F)cc2c1=O [Ciprofloxacin], which ΔTm at 70 µM (MAIP1; read-out: ΔTm Rep. 1) is on record?
Its ΔTm at 70 µM is 2.28 °C.

And the ΔTm at 70 µM (MAIP1; read-out: ΔTm Rep. 2)?
Its ΔTm at 70 µM is 3.73 °C.

What about the ΔTm at 70 µM (FAM171A2; read-out: ΔTm Rep. 1) of the same compound?
The ΔTm at 70 µM was 5.82 °C.

And the ΔTm at 70 µM (FAM171A2; read-out: ΔTm Rep. 2)?
The ΔTm at 70 µM was 3.92 °C.

And the “binding to SCARB1” value (SCARB1)?
The value was “no binding affinity could be determined”.
